According to ChEMBL document CHEMBL1697781, “Assessment of the health effects of chemicals in humans: II. Construction of an adverse effects database for QSAR modeling” (Curr Drug Discov Technol, 2004):

Experiments:
Settings in all cases: human; call rule not given here
Hepatotoxicity [1] = assay: FDA HLAED, serum glutamic pyruvic transaminase (SGPT) increase
Hepatotoxicity [2] = assay: FDA HLAED, gamma-glutamyl transferase (GGT) increase
Hepatotoxicity [3] = assay: FDA HLAED, liver enzyme composite activity
Hepatotoxicity [4] = assay: FDA HLAED, serum glutamic oxaloacetic transaminase (SGOT) increase
Hepatotoxicity [5] = assay: FDA HLAED, alkaline phosphatase increase
Hepatotoxicity [6] = assay: FDA HLAED, lactate dehydrogenase (LDH) increase
For GGT Increase - Index Value in this document: reference of the scale not given here.
For LDH Increase - Index Value in this document: reference of the scale not given here.

Compound | SGPT Increase - Activity Score (Hepatotoxicity [1]) | SGPT Increase - Index Value (Hepatotoxicity [1]) | SGPT Increase - Number of Reports (Hepatotoxicity [1]) | GGT Increase - Activity Score (Hepatotoxicity [2]) | GGT Increase - Index Value (Hepatotoxicity [2]) | GGT Increase - Number of Reports (Hepatotoxicity [2]) | Composite Activity - Active (Hepatotoxicity [3]) | Composite Activity - Marginal (Hepatotoxicity [3]) | Composite Activity - Score (Hepatotoxicity [3]) | SGOT Increase - Activity Score (Hepatotoxicity [4]) | SGOT Increase - Index Value (Hepatotoxicity [4]) | SGOT Increase - Number of Reports (Hepatotoxicity [4]) | Alkaline Phosphatase Increase - Activity Score (Hepatotoxicity [5]) | Alkaline Phosphatase Increase - Index Value (Hepatotoxicity [5]) | Alkaline Phosphatase Increase - Number of Reports (Hepatotoxicity [5]) | LDH Increase - Activity Score (Hepatotoxicity [6]) | LDH Increase - Index Value (Hepatotoxicity [6]) | LDH Increase - Number of Reports (Hepatotoxicity [6]) | other results
C[C@H](CCC(=O)O)[C@H]1CC[C@H]2[C@@H]3[C@H](O)C[C@@H]4C[C@H](O)CC[C@]4(C)[C@H]3CC[C@]12C [CHENODIOL] | Inactive | 0 | < 4 | Inactive | 0 | < 4 | 0 | 0 | Inactive | Inactive | 0 | < 4 | Inactive | 0 | < 4 | Inactive | 0 | < 4 | –
COc1ccc(Cl)cc1C(=O)NCCc1ccc(S(=O)(=O)NC(=O)NC2CCCCC2)cc1 [GLYBURIDE] | Inactive | 2.2 | >= 4 | Inactive | 0 | < 4 | 0 | 1 | Inactive | Inactive | 1.8 | >= 4 | Marginally Active | 3.4 | >= 4 | Inactive | 0.8 | >= 4 | –
CC1COc2c(N3CCN(C)CC3)c(F)cc3c(=O)c(C(=O)O)cn1c23 (stereo unspecified) [OFLOXACIN] | Inactive | 2.1 | >= 4 | Inactive | 0.5 | < 4 | 0 | 0 | Inactive | Inactive | 1.9 | >= 4 | Inactive | 1.2 | >= 4 | Inactive | 1.2 | >= 4 | –
N[C@@H](C(=O)N[C@@H]1C(=O)N2C(C(=O)O)=C(Cl)CC[C@H]12)c1ccccc1 [LORACARBEF ANHYDROUS] | Inactive | 0.2 | < 4 | Inactive | 0.1 | < 4 | 0 | 0 | Inactive | Inactive | 0.2 | < 4 | Inactive | 0.2 | < 4 | Inactive | 0 | < 4 | –
CN(C)C(=N)N=C(N)N [METFORMIN] | Inactive | 0 | < 4 | Inactive | 0 | < 4 | – | – | – | Inactive | 0 | < 4 | Inactive | 0 | < 4 | Inactive | 0 | < 4 | Composite Activity - Active (Hepatotoxicity [3]; Liver): 0; Composite Activity - Marginal (Hepatotoxicity [3]; Liver): 0; Composite Activity - Score (Hepatotoxicity [3]; Liver): Inactive
CC1(C)NC(=O)N(c2ccc([N+](=O)[O-])c(C(F)(F)F)c2)C1=O [NILUTAMIDE] | Inactive | 19.5 | < 4 | Inactive | 0 | < 4 | – | – | – | Inactive | 19.5 | < 4 | Inactive | 0 | < 4 | Inactive | 0 | < 4 | Composite Activity - Active (Hepatotoxicity [3]; Liver): 0; Composite Activity - Marginal (Hepatotoxicity [3]; Liver): 0; Composite Activity - Score (Hepatotoxicity [3]; Liver): Inactive
CO[C@@]1(NC(=O)Cc2cccs2)C(=O)N2C(C(=O)O)=C(COC(N)=O)CS[C@@H]21 [CEFOXITIN] | Inactive | 0 | < 4 | Inactive | 0 | < 4 | 0 | 0 | Inactive | Inactive | 0 | < 4 | Inactive | 0 | < 4 | Inactive | 0 | < 4 | –
